Assay results taken from the NIST ThermoML archive (doi:10.1016/j.jct.2010.08.010).

Details: Liquid, Buoyancy - hydrostatic balance with magnetic suspension - one sinker

C1CCCCC1 [cyclohexane]
Details	mass density [kg/m3]
293.15 K, 99.46 kPa	778.632
293.15 K, 1102 kPa	779.471
293.15 K, 2002.4 kPa	780.22
293.15 K, 4003.9 kPa	781.856
293.15 K, 6003.8 kPa	783.454
293.15 K, 8003.3 kPa	785.025
293.15 K, 10042 kPa	786.595
293.15 K, 12046 kPa	788.105
293.15 K, 13919 kPa	789.495
293.15 K, 15982 kPa	790.995
293.15 K, 17946 kPa	792.401
293.15 K, 20017 kPa	793.855
313.15 K, 102.48 kPa	759.667
313.15 K, 1139 kPa	760.675
313.15 K, 2012.2 kPa	761.509
313.15 K, 4102.4 kPa	763.47
313.15 K, 5932.8 kPa	765.157
313.15 K, 7910.5 kPa	766.936
313.15 K, 10018 kPa	768.784
313.15 K, 12069 kPa	770.545
313.15 K, 13965 kPa	772.137
313.15 K, 15902 kPa	773.737
313.15 K, 17956 kPa	775.394
313.15 K, 20142 kPa	777.123
333.15 K, 1112.4 kPa	741.367
333.15 K, 2043.6 kPa	742.401
333.15 K, 3988 kPa	744.517
333.15 K, 5966.8 kPa	746.613
333.15 K, 8141.8 kPa	748.853
333.15 K, 10007 kPa	750.72
333.15 K, 11994 kPa	752.664
333.15 K, 14093 kPa	754.666
333.15 K, 15963 kPa	756.414
333.15 K, 17995 kPa	758.261
333.15 K, 19861 kPa	759.929
353.15 K, 1109.9 kPa	721.547
353.15 K, 1973.2 kPa	722.669
353.15 K, 4000 kPa	725.242
353.15 K, 6001.3 kPa	727.698
353.15 K, 8046.5 kPa	730.125
353.15 K, 10046 kPa	732.423
353.15 K, 11820 kPa	734.413
353.15 K, 13860 kPa	736.633
353.15 K, 15940 kPa	738.835
353.15 K, 18023 kPa	740.978
353.15 K, 20003 kPa	742.965
373.15 K, 1115.5 kPa	701.065
373.15 K, 1950.1 kPa	702.346
373.15 K, 4154.1 kPa	705.638
373.15 K, 6126 kPa	708.455
373.15 K, 8029.4 kPa	711.079
373.15 K, 9951.2 kPa	713.63
373.15 K, 12097 kPa	716.383
373.15 K, 13877 kPa	718.592
373.15 K, 16148 kPa	721.319
373.15 K, 18078 kPa	723.568
373.15 K, 19877 kPa	725.607
393.15 K, 1162.9 kPa	679.792
393.15 K, 1960.3 kPa	681.265
393.15 K, 3901.4 kPa	684.723
393.15 K, 5983.9 kPa	688.253
393.15 K, 7986.4 kPa	691.487
393.15 K, 9903.3 kPa	694.452
393.15 K, 11975 kPa	697.527
393.15 K, 13821 kPa	700.163
393.15 K, 16029 kPa	703.195
393.15 K, 18027 kPa	705.845
393.15 K, 20004 kPa	708.371
413.15 K, 1196.7 kPa	657.32
413.15 K, 2172.6 kPa	659.527
413.15 K, 4146.4 kPa	663.767
413.15 K, 6122.3 kPa	667.756
413.15 K, 8132.6 kPa	671.583
413.15 K, 10013 kPa	674.989
413.15 K, 11993 kPa	678.397
413.15 K, 14004 kPa	681.703
413.15 K, 16053 kPa	684.936
413.15 K, 18098 kPa	688.022
413.15 K, 19935 kPa	690.694
433.15 K, 1086.7 kPa	632.817
433.15 K, 2070.6 kPa	635.63
433.15 K, 4050.3 kPa	640.931
433.15 K, 6077 kPa	645.937
433.15 K, 8181.7 kPa	650.742
433.15 K, 10077 kPa	654.811
433.15 K, 12111 kPa	658.913
433.15 K, 13890 kPa	662.325
433.15 K, 15959 kPa	666.096
433.15 K, 18073 kPa	669.76
433.15 K, 20010 kPa	672.969
453.15 K, 2100.8 kPa	609.942
453.15 K, 4117.3 kPa	616.844
453.15 K, 6121.3 kPa	623.004
453.15 K, 8117.4 kPa	628.596
453.15 K, 9915.4 kPa	633.254
453.15 K, 11931 kPa	638.115
453.15 K, 13935 kPa	642.628
453.15 K, 15959 kPa	646.918
453.15 K, 18103 kPa	651.206
453.15 K, 19890 kPa	654.601
473.15 K, 2403.5 kPa	582.448
473.15 K, 3924.9 kPa	589.431
473.15 K, 6045.2 kPa	597.933
473.15 K, 8093.2 kPa	605.148
473.15 K, 9884.3 kPa	610.832
473.15 K, 11911 kPa	616.733
473.15 K, 13943 kPa	622.171
473.15 K, 16018 kPa	627.319
473.15 K, 18133 kPa	632.216
473.15 K, 20025 kPa	636.335
